Six molecules from patent US12156857B2, “Composition for promoting ketone body production” (Meiji Co., Ltd., priority 2016, dated 2024) can be followed below.

Assay type in all cases: in vivo, Male Wistar rats
The subject of assay [1] is ketone body production. The experiment in a line: Selection of amino acid promoting ketone body production: blood β-hydroxybutyric acid after amino acid plus MCT feeding. As to conditions: rats, until 6 hours; for % ΔAUC (%): % relative value of area under the blood concentration-curve ΔAUC of β-hydroxybutyric acid, control group = 100 / % ΔCmax (%): % relative value of maximum blood concentration ΔCmax of β-hydroxybutyric acid, control group = 100: overnight fasting, amino acid 1.0 mmol/kg oral, then caprylic triglyceride (MCT) 3.0 g/kg oral, control water + MCT; for both % ΔCmax and % ΔAUC of β-hydroxybutyric acid compared with control group fed with water: amino acid 1.0 mmol/kg oral + MCT 3.0 g/kg oral. On the procedure:
(§1) In the following Examples, the blood β-hydroxybutyric acid concentration was measured with a β-hydroxybutyric acid measuring instrument for self-inspection (Precision Xceed manufactured by Abbott).
In the following Examples, the promotion of ketone body production was evaluated as follows. Specifically, blood was collected from the caudal vein of rats under fasting to measure the blood concentration (mmol/L) of β-hydroxybutyric acid (bHB) as an index of the ketone body in the blood. The measured value was defined as an initial value (0 hours). The rats were grouped into a control group and an experimental group, and fed with test samples. Thereafter, the transition of the blood bHB concentration until after 6 hours from the initial value was graphed. A reference view for determining the maximum blood concentration (Cmax) and area under the blood concentration-curve (AUC) of bHB is shown in FIG. 1A. A value obtained by subtracting the measured value at the initial value (0 hours) from the measured value at the time of each measurement was calculated, and defined as an amount of change in blood β-hydroxybutyric acid concentration (ΔbHB concentration) (FIG. 1B). Then, for the amount of change in blood β-hydroxybutyric acid concentration (ΔbHB concentration), the maximum blood concentration (ΔCmax) and area under the blood concentration-curve (ΔAUC) until after 6 hours from the initial value (0 hours) were calculated (FIG. 1B).
A % relative value (% ΔCmax (%)) of the maximum blood concentration ΔCmax of β-hydroxybutyric acid for the experimental group when the maximum blood concentration ΔCmax of β-hydroxybutyric acid for the control group was assumed to be 100 was determined according to the following calculation formula.
A % relative value (% ΔAUC (%)) of the area under the blood concentration-curve ΔAUC of blood β-hydroxybutyric acid for the experimental group when the area under the blood concentration-curve ΔAUC of blood β-hydroxybutyric acid for the control group was assumed to be 100 was determined according to the following calculation formula.
Male Wistar rats (obtained from Japan SLC, Inc.) were acclimated for one week and then used for testing. Blood was collected from the caudal vein of the rats under overnight fasting to measure the blood concentration (mmol/L) of β-hydroxybutyric acid (bHB) as an index of the ketone body in the blood. The rats were grouped (n=8 for each group) so that the averages of the body weights and the β-hydroxybutyric acid concentrations for the respective groups were as equal as possible. Then, water was orally fed in an amount of 10 mL/kg of the body weight to the control group, and aqueous solutions of various amino acids (manufactured by Wako Pure Chemical Industries, Ltd.) were orally fed in an amount of 1.0 mmol/kg of the body weight to the experimental group. Immediately after feeding of water or each of the aqueous amino acid solutions, caprylic triglyceride (manufactured by Tokyo Chemical Industry Co., Ltd.), which is medium-chain fatty acid oil and fat (MCT), was orally fed in an amount of 3.0 g/kg of the body weight to the groups. Blood was collected from the caudal vein 1, 2, 3, 4, 5, and 6 hours after feeding of MCT to measure the blood β-hydroxybutyric acid concentration.

The subject of assay [2] is ketone body production. Kind of assay: Effect of citrulline amount on ketone body production in feeding of medium-chain fatty acid oil and fat. As to conditions: rats, four-hour fasting; citrulline 1.5, 2.25 or 3.0 mmol/kg + MCT 4.5 g/kg oral constant; until 6 hours. On the procedure: as §1
(§2) In the following Examples, the promotion of ketone body production was evaluated as follows. Specifically, blood was collected from the caudal vein of rats under fasting to measure the blood concentration (mmol/L) of β-hydroxybutyric acid (bHB) as an index of the ketone body in the blood. The measured value was defined as an initial value (0 hours). The rats were grouped into a control group and an experimental group, and fed with test samples. Thereafter, the transition of the blood bHB concentration until after 6 hours from the initial value was graphed. […] A value obtained by subtracting the measured value at the initial value (0 hours) from the measured value at the time of each measurement was calculated, and defined as an amount of change in blood β-hydroxybutyric acid concentration (ΔbHB concentration) (FIG. 1B). Then, for the amount of change in blood β-hydroxybutyric acid concentration (ΔbHB concentration), the maximum blood concentration (ΔCmax) and area under the blood concentration-curve (ΔAUC) until after 6 hours from the initial value (0 hours) were calculated (FIG. 1B). […]

The test system of assay [3] is ketone body production. The experiment in a line: Effect of citrulline or leucine on ketone body production in feeding of medium-chain fatty acid oil and fat. As to conditions: rats, four-hour fasting; amino acid 1.5 mmol/kg oral + caprylic triglyceride (MCT) 4.5 g/kg oral; until 6 hours. The method, then: as §1, §2

In the case of `N[C@@H](CC(=O)O)C(=O)O` [Aspartic acids (Asp), aspartic acid], in the assay with ketone body production [1], the “% ΔAUC (%): % relative value of area under the blood concentration-curve ΔAUC of β-hydroxybutyric acid, control group = 100” value (from here on “% ΔAUC (%): % relative value of area”) came to 107.5 ± 30.7%; the “% ΔCmax (%): % relative value of maximum blood concentration ΔCmax of β-hydroxybutyric acid, control group = 100” value (shortened to “% ΔCmax (%): % relative value”) was 108.8 ± 23.6%; the “both % ΔCmax and % ΔAUC of β-hydroxybutyric acid compared with control group fed with water” value (“both % ΔCmax and % ΔAUC” for short) was “higher than those for the control group”.
In the case of `NC(=O)NCCC[C@H](N)C(=O)O` [Citrulline (Cit), citrulline], in the assay with ketone body production [1], the “% ΔAUC (%): % relative value of area” value was found to be 105.4 ± 37.2%; the “% ΔCmax (%): % relative value” value was 112.8 ± 25.5%; the “both % ΔCmax and % ΔAUC” value is reported as “higher than those for the control group”. For the same molecule, the “amount of ketone bodies produced as a function of citrulline intake amount (% ΔAUC, % ΔCmax, FIGS. 8 and 9)” value in the assay with ketone body production [2] is listed as “the amount of the ketone bodies produced varied according to the intake amount of citrulline (Cit)”. In addition, the “ketone body production compared with MCT fed alone (ΔbHB, ΔAUC, ΔCmax, FIGS. 2 to 7)” value in the assay with ketone body production [3] is “the ketone body production was promoted”.
As for `N[C@@H](CS)C(=O)O` [Cysteine (Cys), cysteine], in the assay with ketone body production [1], the “% ΔAUC (%): % relative value of area” value is 128.3 ± 22.2%; the “% ΔCmax (%): % relative value” value is 151.9 ± 23.8%; the “both % ΔCmax and % ΔAUC” value is listed as “higher than those for the control group”.
The matching figures for `NC(=O)CC[C@H](N)C(=O)O` [Glutamine (Gln), glutamine]: 103.6 ± 30.7%, 121.2 ± 44.6% and “higher than those for the control group”.
For `CC(C)C[C@H](N)C(=O)O` [Leucine (Leu), leucine], in the assay with ketone body production [1], the “% ΔAUC (%): % relative value of area” value turned out to be 110.5 ± 21.1%; the “% ΔCmax (%): % relative value” value stood at 130.1 ± 31.8%; the “both % ΔCmax and % ΔAUC” value is “higher than those for the control group”. Moreover, the “ketone body production compared with MCT fed alone (ΔbHB, ΔAUC, ΔCmax, FIGS. 2 to 7)” value in the assay with ketone body production [3] was “the ketone body production was promoted”.
`NCCS(=O)(=O)O` [Taurine (Tau), taurine]: in the assay with ketone body production [1], the “% ΔAUC (%): % relative value of area” value turned out to be 103.6 ± 23.0%; the “% ΔCmax (%): % relative value” value is 137.8 ± 21.8%; the “both % ΔCmax and % ΔAUC” value is recorded as “higher than those for the control group”.
